Patent publication US20260285850A1, “SUBSTITUTED OXAZOLIDINONES AND IMIDAZOLINONES AS HERBICIDES” (FMC CORPORATION, priority 2023, published 2026)

Experiments:
Assay type in all cases: in vivo
[1] = test system: ragweed (common ragweed, Ambrosia artemisiifolia); assay: Test A preemergence soil spray, visual injury rating 0-100; conditions: 10 days
In short: (§1)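 Loam-sand pots got test material in surfactant-containing solvent, either as a directed soil spray before emergence or on plants at the one- to two-leaf stage. Visual injury (0-100) was read after ten greenhouse days.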

corn (Zea mays) [2] = assay: as above; conditions: 10 days
In short: as §1

[3] = test system: oat, wild (wild oat, Avena fatua); assay: as above; conditions: 10 days
In short: as §1

kochia (Bassia scoparia) [4] = assay: as above; conditions: 10 days
In short: as §1

[5] = test system: blackgrass (Alopecurus myosuroides); assay: as above; conditions: 10 days
In short: as §1

[6] = test system: ryegrass, Italian (italian ryegrass, Lolium multiflorum); assay: as above; conditions: 10 days
In short: as §1

[7] = test system: green foxtail (Setaria viridis); assay: as above; conditions: 10 days
In short: as §1

soybean (Glycine max) [8] = assay: as above; conditions: 10 days
In short: as §1

[9] = test system: barnyardgrass (Echinochloa crus-galli); assay: as above; conditions: 10 days
In short: as §1

[10] = test system: wheat (Triticum aestivum); assay: as above; conditions: 10 days
In short: as §1

[11] = test system: palmer (palmer amaranth, palmer pigweed, Amaranthus palmeri); assay: as above; conditions: 10 days
In short: as §1

[12] = test system: ragweed (common ragweed, Ambrosia artemisiifolia); assay: Test A postemergence application, visual injury rating 0-100
In short: as §1

corn (Zea mays) [13] = assay: as above
In short: as §1

[14] = test system: oat, wild (wild oat, Avena fatua); assay: as above
In short: as §1

kochia (Bassia scoparia) [15] = assay: as above
In short: as §1

[16] = test system: blackgrass (Alopecurus myosuroides); assay: as above
In short: as §1

[17] = test system: ryegrass, Italian (italian ryegrass, Lolium multiflorum); assay: as above
In short: as §1

[18] = test system: green foxtail (Setaria viridis); assay: as above
In short: as §1

soybean (Glycine max) [19] = assay: as above
In short: as §1

[20] = test system: barnyardgrass (Echinochloa crus-galli); assay: as above
In short: as §1

[21] = test system: wheat (Triticum aestivum); assay: as above
In short: as §1

[22] = test system: galium (catchweed bedstraw, Galium aparine); assay: as above
In short: as §1

[23] = test system: palmer (palmer amaranth, palmer pigweed, Amaranthus palmeri); assay: as above
In short: as §1

rice (Oryza sativa) = assay: Test B flooded paddy test, visual plant response rating 0-100; conditions: 250 g ai/ha, Flood, applied to paddy water, evaluated after 13 days
In short: (§2)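 Visual scores versus untreated controls were recorded 13 days after treatment of greenhouse-held plants. At the 2-leaf stage, pots were flooded 3 cm above the soil surface and compounds added straight to the water.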

[24] = test system: ducksalad (Heteranthera limosa); assay: as above; conditions: 250 g ai/ha, Flood, applied to paddy water, evaluated after 13 days
In short: as §2

[25] = test system: sedge, umbrella (small-flower umbrella sedge, Cyperus difformis); assay: as above; conditions: 250 g ai/ha, Flood, applied to paddy water, evaluated after 13 days
In short: as §2

[26] = test system: barnyardgrass (Echinochloa crusgalli); assay: as above; conditions: 250 g ai/ha, Flood, applied to paddy water, evaluated after 13 days
In short: as §2

[27] = 62 g ai/ha, 0 = no effect, 100 = complete control
[28] = 62 g ai/ha, postemergence, 10 days, 0 = no effect, 100 = complete control
[29] = Postemergence, 16 g ai/ha, greenhouse 10 days, 0 no effect, 100 complete control

COC(=O)C1C=CC(NC(=O)C2(C(F)(F)F)CN(c3cc(F)c(F)c(F)c3)C(=O)O2)C1 (mixture of isomers) [Compound 162]
40: Kochia plant response rating (0-100) (kochia (Bassia scoparia) [4]; [27]) | Ragweed plant response rating (0-100) [12, 28]
20: Oat, Wild plant response rating ([3]; 16 g ai/ha, 0 to 100 scale) | Wheat plant response rating ([10]; 16 g ai/ha, 0 to 100 scale) | Ragweed plant response rating (0 to 100 scale) [12, 29] | Plant response rating, Barnyardgrass (0 to 100 scale, 0 is no effect and 100 is complete control) [26]
90: Oat, Wild plant response rating (0-100) [3, 27] | Wheat plant response rating (0-100) [10, 27] | Oat, Wild plant response rating (0-100) [14, 28] | Blackgrass plant response rating (0 to 100 scale) [16, 29] | Wheat plant response rating (0-100) [21, 28] | Wheat plant response rating (0 to 100 scale) [21, 29]
70: Corn plant response rating (0-100) (corn (Zea mays) [2]; [27]) | Kochia plant response rating (0-100) (kochia (Bassia scoparia) [15]; [28]) | Ryegrass, Italian plant response rating (0-100) [17, 28] | Soybean plant response rating (0-100) (soybean (Glycine max) [19]; [28])
50: Soybean plant response rating (0-100) (soybean (Glycine max) [8]; [27]) | Barnyardgrass plant response rating (0 to 100 scale) [20, 29] | Pigweed, Palmer plant response rating (0-100) [23, 28]
65: Plant response rating, Ducksalad (0 to 100 scale, 0 is no effect and 100 is complete control) [24]
100: Corn plant response rating (0-100) (corn (Zea mays) [13]; [28]) | Corn plant response rating (0 to 100 scale) (corn (Zea mays) [13]; [29]) | Blackgrass plant response rating (0-100) [16, 28] | Barnyardgrass plant response rating (0-100) [20, 28]
0: Ragweed plant response rating ([1]; 16 g ai/ha, 0 to 100 scale) | Corn plant response rating (corn (Zea mays) [2]; 16 g ai/ha, 0 to 100 scale) | Kochia plant response rating (kochia (Bassia scoparia) [4]; 16 g ai/ha, 0 to 100 scale) | Blackgrass plant response rating ([5]; 16 g ai/ha, 0 to 100 scale) | Ryegrass, Italian plant response rating ([6]; 16 g ai/ha, 0 to 100 scale) | Foxtail, Green plant response rating ([7]; 16 g ai/ha, 0 to 100 scale) | Barnyardgrass plant response rating ([9]; 16 g ai/ha, 0 to 100 scale) | Pigweed, Palmer plant response rating ([11]; 16 g ai/ha, 0 to 100 scale) | Kochia plant response rating (0 to 100 scale) (kochia (Bassia scoparia) [15]; [29]) | Plant response rating, Rice (0 to 100 scale, 0 is no effect and 100 is complete control) (rice (Oryza sativa)) | Plant response rating, Sedge, Umbrella (0 to 100 scale, 0 is no effect and 100 is complete control) [25]
60: Blackgrass plant response rating (0-100) [5, 27] | Soybean plant response rating (0 to 100 scale) (soybean (Glycine max) [19]; [29]) | Galium plant response rating (0-100) [22, 28]
80: Ryegrass, Italian plant response rating (0-100) [6, 27] | Barnyardgrass plant response rating (0-100) [9, 27] | Oat, Wild plant response rating (0 to 100 scale) [14, 29] | Foxtail, Green plant response rating (0-100) [18, 28]
30: Foxtail, Green plant response rating (0-100) [7, 27] | Pigweed, Palmer plant response rating (0-100) [11, 27] | Ryegrass, Italian plant response rating (0 to 100 scale) [17, 29] | Foxtail, Green plant response rating (0 to 100 scale) [18, 29] | Galium plant response rating (0 to 100 scale) [22, 29]
10: Ragweed plant response rating (0-100) [1, 27] | Soybean plant response rating (soybean (Glycine max) [8]; 16 g ai/ha, 0 to 100 scale) | Pigweed, Palmer plant response rating (0 to 100 scale) [23, 29]
